Data taken from the NIST ThermoML archive (doi:10.1021/je900807v).
Numbers after ± are expanded uncertainties. One block for each compound: values may come before it.

Legend:
[1] = refractive index (Na D-line) (dimensionless); conditions: 298.15 K; 101.33 kPa; Liquid; Standard Abbe refractometry
[2] = 298.15 K, 101.33 kPa, Liquid
[3] = xn = mol fraction of the nth substance listed; conditions: 298.15 K, 101 kPa, Liquid

refractive index [1]: 1.50591 ± 0.0007 | mass density ([2]; Vibrating tube method): 1219.61 ± 0.42 kg/m3
Compound: CCOS(=O)(=O)[O-].CC[n+]1cccc(C)c1 [1-ethyl-3-methylpyridinium ethylsulfate]

refractive index [1]: 1.49774 ± 0.00068 | mass density [2]: 873.57 ± 0.17 kg/m3
Compound: c1ccccc1 [benzene]

mass density ([3]; x2 = 0): 873.57 ± 0.17 kg/m3
Compound: c1ccccc1 [benzene] + CC1CCCCC1

refractive index [1]: 1.49304 ± 0.00068 | mass density [2]: 862.51 ± 0.18 kg/m3
Compound: CCc1ccccc1 [ethylbenzene]

mass density ([3]; x2 = 0): 862.51 ± 0.18 kg/m3
Compound: CCc1ccccc1 [ethylbenzene] + CC1CCCCC1

Compound: CC1CCCCC1 [methylcyclohexane]
refractive index [1]: 1.42062 ± 0.0007 | mass density [2]: 765.02 ± 0.36 kg/m3

Compound: CC1CCCCC1 [methylcyclohexane] + CCc1ccccc1
mass density ([3]; x1 = 0.0494): 857.22 ± 0.19 kg/m3 | mass density ([3]; x1 = 0.0975): 852.13 ± 0.19 kg/m3 | mass density ([3]; x1 = 0.1983): 841.55 ± 0.21 kg/m3 | mass density ([3]; x1 = 0.2981): 831.2 ± 0.23 kg/m3 | mass density ([3]; x1 = 0.4008): 820.93 ± 0.25 kg/m3 | mass density ([3]; x1 = 0.5005): 811.01 ± 0.26 kg/m3 | mass density ([3]; x1 = 0.6001): 801.41 ± 0.28 kg/m3 | mass density ([3]; x1 = 0.7006): 792.06 ± 0.3 kg/m3 | mass density ([3]; x1 = 0.7952): 783.15 ± 0.32 kg/m3 | mass density ([3]; x1 = 0.8949): 774.23 ± 0.34 kg/m3 | mass density ([3]; x1 = 0.9495): 769.34 ± 0.35 kg/m3 | mass density ([3]; x1 = 1): 765.02 ± 0.36 kg/m3

Compound: CC1CCCCC1 [methylcyclohexane] + Cc1ccccc1
mass density ([3]; x1 = 0.05): 855.9 ± 0.18 kg/m3 | mass density ([3]; x1 = 0.0998): 849.91 ± 0.19 kg/m3 | mass density ([3]; x1 = 0.198): 838.24 ± 0.21 kg/m3 | mass density ([3]; x1 = 0.2951): 827.41 ± 0.22 kg/m3 | mass density ([3]; x1 = 0.3968): 816.83 ± 0.24 kg/m3 | mass density ([3]; x1 = 0.4959): 806.9 ± 0.26 kg/m3 | mass density ([3]; x1 = 0.5973): 797.45 ± 0.28 kg/m3 | mass density ([3]; x1 = 0.697): 788.64 ± 0.3 kg/m3 | mass density ([3]; x1 = 0.7954): 780.42 ± 0.32 kg/m3 | mass density ([3]; x1 = 0.8932): 772.71 ± 0.34 kg/m3 | mass density ([3]; x1 = 0.9487): 768.66 ± 0.35 kg/m3 | mass density ([3]; x1 = 1): 765.02 ± 0.36 kg/m3

Compound: CC1CCCCC1 [methylcyclohexane] + c1ccccc1
mass density ([3]; x1 = 0.0504): 865.01 ± 0.18 kg/m3 | mass density ([3]; x1 = 0.099): 857.13 ± 0.19 kg/m3 | mass density ([3]; x1 = 0.1998): 841.92 ± 0.2 kg/m3 | mass density ([3]; x1 = 0.2978): 829.01 ± 0.22 kg/m3 | mass density ([3]; x1 = 0.3991): 816.54 ± 0.24 kg/m3 | mass density ([3]; x1 = 0.4993): 805.76 ± 0.26 kg/m3 | mass density ([3]; x1 = 0.598): 796.03 ± 0.28 kg/m3 | mass density ([3]; x1 = 0.6991): 787.22 ± 0.3 kg/m3 | mass density ([3]; x1 = 0.7981): 779.31 ± 0.32 kg/m3 | mass density ([3]; x1 = 0.8961): 772.04 ± 0.34 kg/m3 | mass density ([3]; x1 = 0.9523): 768.25 ± 0.35 kg/m3 | mass density ([3]; x1 = 1): 765.02 ± 0.36 kg/m3

Compound: Cc1ccccc1 [toluene]
refractive index [1]: 1.49399 ± 0.00068 | mass density [2]: 862.17 ± 0.18 kg/m3

Compound: Cc1ccccc1 [toluene] + CC1CCCCC1
mass density ([3]; x2 = 0): 862.17 ± 0.18 kg/m3
